# Literature values as cited in patent publication US6821974B2, “Stable pharmaceutical compositions” (Barbeau Pharma, Inc, priority 2002, dated 2004).
# Read-outs that look alike come from different tables or passages of the source.
# Legend:
# [1] = 20 mg/ml sterile injection solutions
smiles,measurement,setting,value
"NNc1nncc2ccccc12 [Hydralazine, 1-hydrazinophthalazine]",onset of action,given intravenously,10 to 20 min
same,duration of action,in vivo,3 to 4 h
same,maximum hypotensive effect,in vivo,10 to 80 min
same,onset of action,in vivo,10 to 30 min
same,storage time after which submicron particles appear,[1],6-12 months
